Measured values as given in US20260217717A1, “CDK2 INHIBITORS” (BLUEPRINT MEDICINES CORPORATION, priority 2023, published 2026).

Tests used:
CDK2/Cyclin E = target: T1, CDK2/Cyclin E (Homo sapiens, UniProt P24941); test: CDK2/Cyclin E enzymatic phosphorylation assay (Caliper mobility shift); type: biochemical; conditions: read-out: Enzyme CDK2/cyclin E IC50; note: 1.0 mM ATP or ATP Km
T1 construct: purchased Eurofins 14-475
Description: (§1) Reactions proceeded until between 10% to 20% total peptides were phosphorylated at room temperature (25° C.) and were terminated with 35 mM 2,2′,2″,2′″-(ethane-1,2-diyldinitrilo)tetraacetic acid (EDTA). Product was detected using the Caliper mobility shift detection method where the phosphorylated peptide (product) and substrate were electrophoretically separated and measured. Percent activity was plotted against log concentration of compound and points to generate an apparent IC50.

CDK1/Cyclin B1 = target: T2, CDK1/Cyclin B1 (Homo sapiens, UniProt P06493); test: CDK1/Cyclin B1 enzymatic phosphorylation assay (Caliper mobility shift); type: biochemical; conditions: read-out: Enzyme CDK1/cyclin B1 IC50
T2 construct: GST; purchased BPS 40454
T2 sequence (P06493 whole entry): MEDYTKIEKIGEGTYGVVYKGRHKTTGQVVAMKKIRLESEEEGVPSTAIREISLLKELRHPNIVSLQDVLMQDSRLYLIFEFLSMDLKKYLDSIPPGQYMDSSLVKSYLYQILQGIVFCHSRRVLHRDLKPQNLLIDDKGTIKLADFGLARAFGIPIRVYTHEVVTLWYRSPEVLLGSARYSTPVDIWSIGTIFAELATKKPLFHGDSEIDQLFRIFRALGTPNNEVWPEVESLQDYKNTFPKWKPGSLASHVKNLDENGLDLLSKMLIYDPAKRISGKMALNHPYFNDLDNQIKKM
T2 sequence (P14635 whole entry partner): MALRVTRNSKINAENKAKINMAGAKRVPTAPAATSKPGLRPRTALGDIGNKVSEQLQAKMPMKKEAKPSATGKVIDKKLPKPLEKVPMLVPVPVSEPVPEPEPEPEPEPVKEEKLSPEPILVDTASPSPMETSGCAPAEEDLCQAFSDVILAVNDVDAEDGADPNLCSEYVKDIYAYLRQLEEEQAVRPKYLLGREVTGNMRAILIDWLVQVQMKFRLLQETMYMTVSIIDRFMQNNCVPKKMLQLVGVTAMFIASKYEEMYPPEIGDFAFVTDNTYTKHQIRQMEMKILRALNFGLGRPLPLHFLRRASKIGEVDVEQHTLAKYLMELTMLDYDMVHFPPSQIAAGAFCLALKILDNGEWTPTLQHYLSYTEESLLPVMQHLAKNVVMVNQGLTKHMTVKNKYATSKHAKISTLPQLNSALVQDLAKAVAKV
Description: as §1

SMILES | IC50 (CDK2/Cyclin E) | IC50 (CDK1/Cyclin B1)
C[C@@H](c1ccccc1F)n1ncc2ncc(Nc3cc(C4COC4)[nH]n3)nc21 [Example 52, (S)-1-(1-(2-fluorophenyl)ethyl)-N-(5-(oxetan-3-yl)-1H-pyrazol-3-yl)-1H-pyrazolo[3,4-b]pyrazin-6-amine] | 0.2 nM | 104 nM
CC(C)c1cc(Nc2cnc3cnn(CC4CCN(C)CC4)c3n2)n[nH]1 [Example 64, N-(5-isopropyl-1H-pyrazol-3-yl)-1-((1-methylpiperidin-4-yl)methyl)-1H-pyrazolo[3,4-b]pyrazin-6-amine] | 56 nM | 2080 nM
COc1ncccc1[C@H](C)n1ncc2ncc(Nc3cc(C)[nH]n3)nc21 [Example 23, (S)-1-(1-(2-methoxypyridin-3-yl)ethyl)-N-(5-methyl-1H-pyrazol-3-yl)-1H-pyrazolo[3,4-b]pyrazin-6-amine] | 14.1 nM | 1540 nM
C[C@@H](c1ccccn1)n1ncc2ncc(Nc3cc(C4COC4)[nH]n3)nc21 [Example 55, (S)-N-(5-(oxetan-3-yl)-1H-pyrazol-3-yl)-1-(1-(pyridin-2-yl)ethyl)-1H-pyrazolo[3,4-b]pyrazin-6-amine] | 2 nM | 951 nM
C[C@@H](C1CCOCC1)n1ncc2ncc(Nc3cc(C4COC4)[nH]n3)nc21 [Example 41, (S)-N-(5-(oxetan-3-yl)-1H-pyrazol-3-yl)-1-(1-(tetrahydro-2H-pyran-4-yl)ethyl)-1H-pyrazolo[3,4-b]pyrazin-6-amine] | 1.7 nM | 334 nM
CC(C)c1cc(Nc2cnc3cnn(C[C@H](C)CO)c3n2)n[nH]1 [Example 61, (S)-3-(6-((5-isopropyl-1H-pyrazol-3-yl)amino)-1H-pyrazolo[3,4-b]pyrazin-1-yl)-2-methylpropan-1-ol] | 13.2 nM | 1880 nM
Fc1ncccc1Cn1ncc2ncc(Nc3cc(C4COC4)[nH]n3)nc21 [Example 49, 1-((2-fluoropyridin-3-yl)methyl)-N-(5-(oxetan-3-yl)-1H-pyrazol-3-yl)-1H-pyrazolo[3,4-b]pyrazin-6-amine] | 2.8 nM | 644 nM
CC(C)c1cc(Nc2cnc3cnn([C@H]4CC[C@H](O)CC4)c3n2)n[nH]1 [Example 57, (1r,4r)-4-(6-((5-isopropyl-1H-pyrazol-3-yl)amino)-1H-pyrazolo[3,4-b]pyrazin-1-yl)cyclohexan-1-ol] | 1 nM | 174 nM
C[C@H](C1CCOCC1)n1ncc2ncc(Nc3cc(C4COC4)[nH]n3)nc21 [Example 43, (R)-N-(5-(oxetan-3-yl)-1H-pyrazol-3-yl)-1-(1-(tetrahydro-2H-pyran-4-yl)ethyl)-1H-pyrazolo[3,4-b]pyrazin-6-amine] | 21.4 nM | 1650 nM
C[C@@H](c1cccnc1)n1ncc2ncc(Nc3cc(C(F)F)[nH]n3)nc21 [Example 2, (S)-N-(5-(difluoromethyl)-1H-pyrazol-3-yl)-1-(1-(pyridin-3-yl)ethyl)-1H-pyrazolo[3,4-b]pyrazin-6-amine] | 22.8 nM | 6030 nM
Cc1cc(Nc2cnc3cnn(Cc4cccnc4)c3n2)n[nH]1 [Example 3, N-(5-methyl-1H-pyrazol-3-yl)-1-(pyridin-3-ylmethyl)-1H-pyrazolo[3,4-b]pyrazin-6-amine] | 78.1 nM | 9140 nM
c1nc2cnn(CC3CCOCC3)c2nc1Nc1cc(C2COC2)[nH]n1 [Example 35, N-(5-(oxetan-3-yl)-1H-pyrazol-3-yl)-1-((tetrahydro-2H-pyran-4-yl)methyl)-1H-pyrazolo[3,4-b]pyrazin-6-amine] | 11.3 nM | 877 nM
C[C@@H](c1cccnc1Cl)n1ncc2ncc(Nc3cc(C#N)[nH]n3)nc21 [Example 24, (S)-3-((1-(1-(2-chloropyridin-3-yl)ethyl)-1H-pyrazolo[3,4-b]pyrazin-6-yl)amino)-1H-pyrazole-5-carbonitrile] | 20.3 nM | 3330 nM
Fc1cncc(Cn2ncc3ncc(Nc4cc(C5COC5)[nH]n4)nc32)c1 [Example 50, 1-((5-fluoropyridin-3-yl)methyl)-N-(5-(oxetan-3-yl)-1H-pyrazol-3-yl)-1H-pyrazolo[3,4-b]pyrazin-6-amine] | 44.8 nM | 3060 nM
CCc1cc(Nc2cnc3cnn(CC4CCOCC4)c3n2)n[nH]1 [Example 37, N-(5-ethyl-1H-pyrazol-3-yl)-1-((tetrahydro-2H-pyran-4-yl)methyl)-1H-pyrazolo[3,4-b]pyrazin-6-amine] | 5.4 nM | 533 nM
c1cncc(Cn2ncc3ncc(Nc4cc(C5COC5)[nH]n4)nc32)c1 [Example 34, N-(5-(oxetan-3-yl)-1H-pyrazol-3-yl)-1-(pyridin-3-ylmethyl)-1H-pyrazolo[3,4-b]pyrazin-6-amine] | 10.8 nM | 1900 nM

SMILES | IC50 (CDK2/Cyclin E) | IC50 (CDK1/Cyclin B1)
CC(C)c1cc(Nc2cnc3cnn(C[C@H]4CCOC4)c3n2)n[nH]1 (single isomer, unassigned) [Example 11, (R)-N-(5-isopropyl-1H-pyrazol-3-yl)-1-((tetrahydrofuran-3-yl)methyl)-1H-pyrazolo[3,4-b]pyrazin-6-amine or (S)-N-(5-isopropyl-1H-pyrazol-3-yl)-1-((tetrahydrofuran-3-yl)methyl)-1H-pyrazolo[3,4-b]pyrazin-6-amine] | 3.8 nM | 1270 nM
c1ccc(Cn2ncc3ncc(Nc4cc(C5COC5)[nH]n4)nc32)cc1 [Example 44, 1-benzyl-N-(5-(oxetan-3-yl)-1H-pyrazol-3-yl)-1H-pyrazolo[3,4-b]pyrazin-6-amine] | 18.5 nM | 2220 nM
Cc1cc(Nc2cnc3cnn([C@H]4CC[C@H](O)CC4)c3n2)n[nH]1 [Example 39, (1r,4r)-4-(6-((5-methyl-1H-pyrazol-3-yl)amino)-1H-pyrazolo[3,4-b]pyrazin-1-yl)cyclohexan-1-ol] | 90 nM | 7650 nM
CC(C)c1cc(Nc2cnc3cnn(C[C@@H]4CCCOC4)c3n2)n[nH]1 (single isomer, unassigned) [Example 10, (S)-N-(5-isopropyl-1H-pyrazol-3-yl)-1-((tetrahydro-2H-pyran-3-yl)methyl)-1H-pyrazolo[3,4-b]pyrazin-6-amine or (R)-N-(5-isopropyl-1H-pyrazol-3-yl)-1-((tetrahydro-2H-pyran-3-yl)methyl)-1H-pyrazolo[3,4-b]pyrazin-6-amine] | 0.5 nM | 147 nM
c1nc2cnn(CC3CCOCC3)c2nc1Nc1cc(C2CC2)[nH]n1 [Example 36, N-(5-cyclopropyl-1H-pyrazol-3-yl)-1-((tetrahydro-2H-pyran-4-yl)methyl)-1H-pyrazolo[3,4-b]pyrazin-6-amine] | 0.5 nM | 83.6 nM
Cc1cc(Nc2cnc3cnn([C@@H](C)C4CCOCC4)c3n2)n[nH]1 [Example 54, (S)-N-(5-methyl-1H-pyrazol-3-yl)-1-(1-(tetrahydro-2H-pyran-4-yl)ethyl)-1H-pyrazolo[3,4-b]pyrazin-6-amine] | 26 nM | 3670 nM
c1nc2cnn(C[C@H]3[C@@H]4COC[C@@H]43)c2nc1Nc1cc(C2COC2)[nH]n1 [Example 16, 1-(((1R,5S,6s)-3-oxabicyclo[3.1.0]hexan-6-yl)methyl)-N-(5-(oxetan-3-yl)-1H-pyrazol-3-yl)-1H-pyrazolo[3,4-b]pyrazin-6-amine] | 8.5 nM | 1020 nM
CCc1cc(Nc2cnc3cnn([C@@H](C)c4cccnc4)c3n2)n[nH]1 [Example 32, (S)-N-(5-ethyl-1H-pyrazol-3-yl)-1-(1-(pyridin-3-yl)ethyl)-1H-pyrazolo[3,4-b]pyrazin-6-amine] | 1.9 nM | 465 nM
Fc1ccc(Cn2ncc3ncc(Nc4cc(C5COC5)[nH]n4)nc32)cn1 [Example 48, 1-((6-fluoropyridin-3-yl)methyl)-N-(5-(oxetan-3-yl)-1H-pyrazol-3-yl)-1H-pyrazolo[3,4-b]pyrazin-6-amine] | 13.1 nM | 1840 nM
Fc1ccc(Cn2ncc3ncc(Nc4cc(C5COC5)[nH]n4)nc32)cc1 [Example 47, 1-(4-fluorobenzyl)-N-(5-(oxetan-3-yl)-1H-pyrazol-3-yl)-1H-pyrazolo[3,4-b]pyrazin-6-amine] | 16 nM | 1380 nM
C[C@@H](c1cc(Nc2cnc3cnn(CC4CCOCC4)c3n2)n[nH]1)C(F)F (single isomer, unassigned) [Example 21] | 5.4 nM | 595 nM
CC(C)c1cc(Nc2cnc3cnn([C@H](C)c4cccnc4)c3n2)n[nH]1 [Example 40, (R)-N-(5-isopropyl-1H-pyrazol-3-yl)-1-(1-(pyridin-3-yl)ethyl)-1H-pyrazolo[3,4-b]pyrazin-6-amine] | 0.3 nM | 93 nM
Fc1cccc(Cn2ncc3ncc(Nc4cc(C5COC5)[nH]n4)nc32)c1 [Example 46, 1-(3-fluorobenzyl)-N-(5-(oxetan-3-yl)-1H-pyrazol-3-yl)-1H-pyrazolo[3,4-b]pyrazin-6-amine] | 7.9 nM | 1060 nM
CC(C)c1cc(Nc2cnc3cnn(CC4CCNCC4)c3n2)n[nH]1 [Example 62, N-(5-isopropyl-1H-pyrazol-3-yl)-1-(piperidin-4-ylmethyl)-1H-pyrazolo[3,4-b]pyrazin-6-amine] | 16 nM | 1930 nM
C[C@@H](c1ccc(F)cc1)n1ncc2ncc(Nc3cc(C4COC4)[nH]n3)nc21 [Example 53, (S)-1-(1-(4-fluorophenyl)ethyl)-N-(5-(oxetan-3-yl)-1H-pyrazol-3-yl)-1H-pyrazolo[3,4-b]pyrazin-6-amine] | 1.9 nM | 330 nM
Cc1nc2cnn(Cc3cccnc3)c2nc1Nc1cc(C(C)C)[nH]n1 [Example 18, N-(5-isopropyl-1H-pyrazol-3-yl)-5-methyl-1-(pyridin-3-ylmethyl)-1H-pyrazolo[3,4-b]pyrazin-6-amine] | 15.1 nM | 3230 nM
